Assay results: paper PMC9166766 (Experimental & Molecular Medicine, 2022)

Tests used:
NFATC2 dephosphorylation = experiment: NFAT mobility shifting assay in Jurkat T cells; assay type: cell-based; details: HA-mCherry-tagged peptides, PMA and ionomycin 2 h, n = 7
Method: Jurkat T cells expressing GST-tagged peptides were treated with PMA and ionomycin for activation. […] For dephosphorylation of NFATC2, Jurkat T cells were treated with PMA and ionomycin for 2 h. c Hyper- and hypophosphorylated NFATC2 of b was measured using ImageJ, and the hypo/hyper ratio was calculated (n = 7). d Snapshot images of the activated Jurkat T cells expressing the indicated peptides and tNFATC2 were obtained using confocal microscopy. The expression and localization of peptides and tNFATC2 are shown as mCherry (red) and EGFP (green), respectively. Nuclei were stained with Hoechst (blue). Scale bar, 50 μm e Nuclear-localized tNFATC2 was measured by calculating the colocalization ratio between Hoechst (M1) and EGFP (M2). […] Statistical differences were determined using a two-tailed Student’s t-test (a, c) or one-way ANOVA (e). ***p < 0.001, NC negative control.

tNFATC2 nuclear import = experiment: Nuclear localization of EGFP-tNFATC2 by confocal microscopy in Jurkat T cells; assay type: cell-based; details: 40 nM PMA and 1 μM ionomycin 4 h, FK506 0.5 μM, n = 10-12
Method: We transfected Jurkat T cells with the pCAG-EGFP-tNFATC2-IRES-mCherry-peptide by electroporation. After two days, we pretreated these cells with 0.5 μM FK506 for 30 min. Then, we treated them with 40 nM PMA and 1 μM ionomycin under culture conditions for 4 h. Before imaging by a confocal laser scanning microscope (Nikon, Tokyo, Japan), we treated the cells with 10 μg/ml Hoechst 33342 (Invitrogen, Waltham, MA, USA) to stain nuclei. Colocalization analysis of mCherry and Hoechst was performed with ImageJ and its plugin JACoP to measure the Manders coefficient[23],[24].
Scale bar, 50 μm e Nuclear-localized tNFATC2 was measured by calculating the colocalization ratio between Hoechst (M1) and EGFP (M2).

[1] = system: Jurkat T cells (PMA and ionomycin-induced gene expression); experiment: mRNA sequencing of activated Jurkat T cells; assay type: cell-based, human
Method: We then extracted RNA from these cells. Construction of the cDNA library and next-generation sequencing was performed at LAS (Gimpo, Korea). We sequenced all samples on an Illumina NextSeq 500 system with 75 paired-end reads. For the RNA sequencing analysis, reads for each sample were aligned to the human genome (GRCh37/hg19 genome assembly) using STAR 2.4.0.1[25] with default settings. We used HOMER tools to quantify and normalize the defined genes in RefSeq transcripts. FPKM normalized genes were hierarchically clustered using Cluster3.0[26]. We visualized refined data with Java Treeview (http://jtreeview.sourceforge.net). We conducted gene ontology analysis of each cluster using the DAVID web tool (https://david.ncifcrf.gov). Finally, we visualized the expression levels of target genes using the Integrative Genomics Viewer (http://software.broadinstitute.org/software/igv). The raw data were submitted to the NCBI Gene Expression Omnibus under accession number GSE185561.
Fig. 3 The CABIN1 peptide inhibits T-cell activation. a Heatmap of altered genes affected by FK506 treatment or CABIN1 peptide expression upon T-cell activation. b Gene Ontology analysis of cluster III. c mRNA expression levels of genes included in cluster III. d qRT-PCR data of genes in c. The experiment was independently repeated at least three times, and the data are presented as the mean ± standard deviation. Statistical differences were determined using two-tailed Student’s t-test. *p < 0.05, **p < 0.01, ***p < 0.001, NC negative control.

C=CC[C@@H]1/C=C(\C)C[C@H](C)C[C@H](OC)[C@H]2O[C@@](O)(C(=O)C(=O)N3CCCC[C@H]3C(=O)O[C@H](/C(C)=C/[C@@H]3CC[C@@H](O)[C@H](OC)C3)[C@H](C)[C@@H](O)CC1=O)[C@H](C)C[C@@H]2OC [FK506, reference compound]
NFATC2 dephosphorylation / band shift (NFATC2 dephosphorylation): inhibited the NFATC2 band shift | proportion of nuclear-localized tNFATC2 (tNFATC2 nuclear import): lowest | CD27 and CD70 expression ([1]; Jurkat, PMA and ionomycin 8 h): repressed | RNA levels of T-cell activation markers (IL2, IL3, NFATC1, CCL4, CCL20, CXCL8) ([1]; Jurkat, PMA and ionomycin 8 h): reduced the RNA levels | TM4SF1 expression ([1]; P+I 8 h, NC 0, NC_P+I 3.268): 0.439 FPKM | CD200 expression ([1]; P+I 8 h, NC 0, NC_P+I 3.759): 0 FPKM | ZP4 expression ([1]; P+I 8 h, NC 0, NC_P+I 6.38): 0.462 FPKM | CCL3L1 expression ([1]; P+I 8 h, NC 0, NC_P+I 6.448): 0 FPKM | CCL3L3 expression ([1]; P+I 8 h, NC 0, NC_P+I 6.524): 0 FPKM | CCL1 expression ([1]; P+I 8 h, NC 0, NC_P+I 9.86): 0 FPKM | NR4A2 expression ([1]; P+I 8 h, NC 0, NC_P+I 10.173): 0.04 FPKM | CCL4L2 expression ([1]; P+I 8 h, NC 0, NC_P+I 12.758): 0.087 FPKM | CCL4L1 expression ([1]; P+I 8 h, NC 0, NC_P+I 13.27): 0.087 FPKM | CSF2 expression ([1]; P+I 8 h, NC 0, NC_P+I 23.497): 0 FPKM | XCL1 expression ([1]; P+I 8 h, NC 0, NC_P+I 49.113): 0 FPKM | CCL3 expression ([1]; P+I 8 h, NC 0, NC_P+I 52.239): 0 FPKM | CCL20 expression ([1]; P+I 8 h, NC 0, NC_P+I 59.393): 0 FPKM | IL3 expression ([1]; P+I 8 h, NC 0, NC_P+I 229.054): 0.062 FPKM | CCL4 expression ([1]; P+I 8 h, NC 0, NC_P+I 247.287): 0 FPKM | IL2 expression ([1]; P+I 8 h, NC 0, NC_P+I 397.807): 0.287 FPKM | C3 expression ([1]; P+I 8 h, NC 0.006, NC_P+I 3.907): 0.489 FPKM | TNS3 expression ([1]; P+I 8 h, NC 0.008, NC_P+I 13.196): 0.678 FPKM | PLS3 expression ([1]; P+I 8 h, NC 0.019, NC_P+I 4.717): 0.052 FPKM | CREB5 expression ([1]; P+I 8 h, NC 0.031, NC_P+I 4.533): 0.577 FPKM | IRF4 expression ([1]; P+I 8 h, NC 0.034, NC_P+I 8.439): 0.423 FPKM | CXCL8 expression ([1]; P+I 8 h, NC 0.037, NC_P+I 26.755): 0.937 FPKM | SLAMF1 expression ([1]; P+I 8 h, NC 0.042, NC_P+I 5.663): 0.217 FPKM | TNFSF14 expression ([1]; P+I 8 h, NC 0.045, NC_P+I 69.958): 1.023 FPKM | IL21R-AS1 expression ([1]; P+I 8 h, NC 0.048, NC_P+I 23.616): 1.927 FPKM | XCL2 expression ([1]; P+I 8 h, NC 0.056, NC_P+I 70.747): 0 FPKM | LIF expression ([1]; P+I 8 h, NC 0.063, NC_P+I 3.697): 0.143 FPKM | SHC4 expression ([1]; P+I 8 h, NC 0.069, NC_P+I 4.391): 0.663 FPKM | RGS16 expression ([1]; P+I 8 h, NC 0.077, NC_P+I 29.102): 1.172 FPKM | IL21R expression ([1]; P+I 8 h, NC 0.1, NC_P+I 34.712): 2.244 FPKM | CRTAM expression ([1]; P+I 8 h, NC 0.104, NC_P+I 100.175): 3.325 FPKM | ZNF704 expression ([1]; P+I 8 h, NC 0.107, NC_P+I 4.985): 0.014 FPKM | NTRK1 expression ([1]; P+I 8 h, NC 0.167, NC_P+I 7.941): 0.836 FPKM | PHEX expression ([1]; P+I 8 h, NC 0.188, NC_P+I 17.377): 0.213 FPKM | SORBS1 expression ([1]; P+I 8 h, NC 0.196, NC_P+I 5.08): 0.4 FPKM | TIAM2 expression ([1]; P+I 8 h, NC 0.255, NC_P+I 4.095): 0.27 FPKM | CRIM1 expression ([1]; P+I 8 h, NC 0.268, NC_P+I 3.029): 0.305 FPKM | SERPINB2 expression ([1]; P+I 8 h, NC 0.28, NC_P+I 85.882): 2.905 FPKM | CCND2 expression ([1]; P+I 8 h, NC 0.321, NC_P+I 6.436): 0.558 FPKM | CXCR3 expression ([1]; P+I 8 h, NC 0.604, NC_P+I 14.322): 0.503 FPKM | ISM1 expression ([1]; P+I 8 h, NC 0.798, NC_P+I 56.893): 0.726 FPKM | C10orf54 expression ([1]; P+I 8 h, NC 0.84, NC_P+I 7.506): 0.382 FPKM | CSF1 expression ([1]; P+I 8 h, NC 0.848, NC_P+I 13.43): 1.706 FPKM | SLC35E4 expression ([1]; P+I 8 h, NC 0.887, NC_P+I 9.069): 0.952 FPKM | ZNF827 expression ([1]; P+I 8 h, NC 0.975, NC_P+I 3.401): 1.521 FPKM | CD70 expression ([1]; P+I 8 h, NC 1.101, NC_P+I 61.146): 3.005 FPKM | PAM expression ([1]; P+I 8 h, NC 1.154, NC_P+I 5.577): 1.483 FPKM | FOXO1 expression ([1]; P+I 8 h, NC 1.167, NC_P+I 8.247): 1.77 FPKM | IRF8 expression ([1]; P+I 8 h, NC 1.168, NC_P+I 14.813): 1.19 FPKM | SCHIP1 expression ([1]; P+I 8 h, NC 1.25, NC_P+I 3.933): 1.535 FPKM | FOSL2 expression ([1]; P+I 8 h, NC 1.294, NC_P+I 7.508): 2.204 FPKM | TNFSF9 expression ([1]; P+I 8 h, NC 1.393, NC_P+I 7.107): 2.568 FPKM | IQCJ-SCHIP1 expression ([1]; P+I 8 h, NC 1.402, NC_P+I 4.253): 1.657 FPKM | STAT5A expression ([1]; P+I 8 h, NC 1.417, NC_P+I 9.105): 3.347 FPKM
